Test results from ChEMBL document CHEMBL1133074, “2-Methyladenosine-Substituted 2',5'-oligoadenylates: conformations, 2-5A binding and catalytic activities with human ribonuclease L” (Bioorg Med Chem Lett, 2000).

Columns and labels:
[1] = biological target: T1, 2-5A-dependent ribonuclease (Homo sapiens, UniProt Q05823); test: Activation of purified recombinant human Ribonuclease L by the compound was measured as degradation of [32P]-pC11U2C7
T1 sequence (Q05823 whole entry): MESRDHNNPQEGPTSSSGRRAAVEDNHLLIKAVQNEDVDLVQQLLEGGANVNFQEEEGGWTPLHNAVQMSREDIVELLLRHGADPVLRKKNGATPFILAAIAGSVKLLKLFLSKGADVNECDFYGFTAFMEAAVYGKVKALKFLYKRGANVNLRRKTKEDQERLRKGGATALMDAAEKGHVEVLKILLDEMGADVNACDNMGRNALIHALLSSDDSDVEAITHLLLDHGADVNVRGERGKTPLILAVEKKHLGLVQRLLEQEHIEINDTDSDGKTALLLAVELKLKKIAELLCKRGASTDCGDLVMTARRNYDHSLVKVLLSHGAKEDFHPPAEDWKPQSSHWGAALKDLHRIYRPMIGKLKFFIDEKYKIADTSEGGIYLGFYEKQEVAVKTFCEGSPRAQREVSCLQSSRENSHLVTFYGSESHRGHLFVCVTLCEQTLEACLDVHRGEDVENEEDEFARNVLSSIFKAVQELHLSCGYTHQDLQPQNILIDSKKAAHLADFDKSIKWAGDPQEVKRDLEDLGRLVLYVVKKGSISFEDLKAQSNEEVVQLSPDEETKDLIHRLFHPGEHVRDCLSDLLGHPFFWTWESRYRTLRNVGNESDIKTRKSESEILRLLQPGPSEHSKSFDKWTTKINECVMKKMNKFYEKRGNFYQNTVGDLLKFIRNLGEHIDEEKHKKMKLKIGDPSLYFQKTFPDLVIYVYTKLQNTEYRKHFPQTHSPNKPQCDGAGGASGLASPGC

[2] = biological target: T1, 2-5A-dependent ribonuclease; test: Activation of purified recombinant human Ribonuclease L by the compound was measured as degradation of poly (U) 3'[32P]p5'C3'p
[3] = biological target: T1, 2-5A-dependent ribonuclease; test: Compound was tested for its binding ability, by displacement of p(A2'p)3A3'[32p]p5'Cp from recombinant human ribonuclease L
[4] = (§1) Relative concentration required to cause 50% degradation of the [32P]-pC11U2C7
[5] = (§2) Relative concentration required to cause 50% degradation of the poly (U) 3'[32P]p5'C3'p
[6] = Ratio of quotient (binding IC50)/(activation EC50 for the poly (U) assay)
[7] = (§3) Relative concentration required to displace 50% of the p(A2'p)3A3'[32p]p5'Cp
[8] = as §1; format: functional
[9] = as §2; format: functional
[10] = as §3; format: functional

SMILES | EC50 [1] [nM] | EC50 [2] [nM] | IC50 [3] [nM] | Crel [4] | Crel [5] | Rn [6] | Crel [7] | Crel [8] | Crel [9] | Crel [10]
Cc1nc(N)c2ncn([C@@H]3O[C@H](COP(=O)(O)O[C@@H]4[C@H](O)[C@@H](COP(=O)(O)O[C@@H]5[C@H](O)[C@@H](COP(=O)(O)OP(=O)(O)OP(=O)(O)O)O[C@H]5n5cnc6c(N)ncnc65)O[C@H]4n4cnc5c(N)ncnc54)[C@@H](O)[C@H]3O)c2n1 | 0.3 | 0.24 | 0.72 | 1.5 | 2 | 0.06 | 0.1 | – | – | –
Cc1nc(N)c2ncn([C@@H]3O[C@H](COP(=O)(O)O[C@@H]4[C@H](O)[C@@H](COP(=O)(O)O[C@@H]5[C@H](O)[C@@H](COP(=O)(O)O)O[C@H]5n5cnc6c(N)ncnc65)O[C@H]4n4cnc5c(N)ncnc54)[C@@H](O)[C@H]3O)c2n1 | 0.2 | 0.13 | 2.6 | – | – | 0.4 | – | 1 | 0.9 | 0.4
Nc1ncnc2c1ncn2[C@@H]1O[C@H](COP(=O)(O)O[C@@H]2[C@H](O)[C@@H](COP(=O)(O)O[C@@H]3[C@H](O)[C@@H](COP(=O)(O)O)O[C@H]3n3cnc4c(N)ncnc43)O[C@H]2n2cnc3c(N)ncnc32)[C@@H](O)[C@H]1O | – | – | – | 1 | 1 | 1 | 1 | – | – | –
Cc1nc(N)c2ncn([C@@H]3O[C@H](COP(=O)(O)O)[C@@H](O)[C@H]3OP(=O)(O)OC[C@H]3O[C@@H](n4cnc5c(N)ncnc54)[C@H](OP(=O)(O)OC[C@H]4O[C@@H](n5cnc6c(N)ncnc65)[C@H](O)[C@@H]4O)[C@@H]3O)c2n1 | 0.7 | 0.84 | 57 | 2.7 | 6 | 1.4 | 8 | – | – | –

Continued, in another order:

EC50 [1] [nM] | EC50 [2] [nM] | IC50 [3] [nM] | Crel [4] | Crel [5] | Rn [6] | Crel [7] | SMILES | Crel [8] | Crel [9] | Crel [10]
30 | 16 | 1060 | 120 | 107 | 1.4 | 146 | Cc1nc(N)c2ncn([C@@H]3O[C@H](COP(=O)(O)O[C@@H]4[C@H](O)[C@@H](COP(=O)(O)O[C@@H]5[C@H](O)[C@@H](COP(=O)(O)O)O[C@H]5n5cnc6c(N)nc(C)nc65)O[C@H]4n4cnc5c(N)nc(C)nc54)[C@@H](O)[C@H]3O)c2n1 | – | – | –
0.8 | 0.68 | 24 | 4 | 5 | 0.7 | 3 | Cc1nc(N)c2ncn([C@@H]3O[C@H](COP(=O)(O)OP(=O)(O)OP(=O)(O)O)[C@@H](O)[C@H]3OP(=O)(O)OC[C@H]3O[C@@H](n4cnc5c(N)ncnc54)[C@H](OP(=O)(O)OC[C@H]4O[C@@H](n5cnc6c(N)ncnc65)[C@H](O)[C@@H]4O)[C@@H]3O)c2n1 | – | – | –
4 | 4.6 | 105 | 20 | 31 | 0.5 | 15 | Cc1nc(N)c2ncn([C@@H]3O[C@H](COP(=O)(O)O[C@@H]4[C@H](O)[C@@H](COP(=O)(O)O[C@@H]5[C@H](O)[C@@H](COP(=O)(O)OP(=O)(O)OP(=O)(O)O)O[C@H]5n5cnc6c(N)nc(C)nc65)O[C@H]4n4cnc5c(N)nc(C)nc54)[C@@H](O)[C@H]3O)c2n1 | – | – | –
